From patent publication US20190322981A1, “MEANS AND METHODS FOR THE GENERATION OF OLIGODENDROCYTES” (Westfaelische Wilhelms-Universitaet Muenster, priority 2016, published 2019)

Legend:
[1] = test system: iOL (SON-transduced human iPSC-derived NPC); assay: Compound screen: differentiation-promoting effect of drug candidates on iOL (O4 and MBP immunocytochemistry); format: cell-based; conditions: for toxic influence on iOL: at higher concentrations (tested 0.5, 1, 5 μM); for formation of MBP+ mature iOL relative to T3-treated cultures: drug candidate at 0.5, 1, 5 μM; for effect on formation of O4+ iOL compared to DMSO control: T3 60 ng/ml or drug candidate at 0.5, 1, 5 μM
Method: For immunocytochemical analysis, an equal volume of 4% PFA in PBS was added to the culture medium and cells were pre-fixed for 10 min at room temperature (RT). After removing the supernatant, cells were fixed for an additional 15 minutes with 4% PFA in PBS and washed three times with PBS. Fixed cells were permeabilized by adding 0.2% Triton X-100 (Sigma) in PBS for 15 min at RT (This step was omitted for NG2, O4 and GalC staining). Subsequently, blocking was performed by incubating the cells with 5% normal goat serum (NGS; Gibco) and 5% fetal calf serum (FCS; Gibco) for 30 min at RT. Primary antibodies were applied overnight at 4° C. in blocking solution. Following three washing steps with PBS, cells were incubated with Alexa Fluor conjugated secondary antibodies diluted in PBS for 1 h at RT. Cells were subsequently washed three times with PBS, including a Hoechst counterstaining for nuclei in the second washing step. Cells on glass coverslips were mounted in Dako Fluorescent Mounting Medium (Dako) and visualized on a Zeiss LSM700 confocal microscope. Cells on plastic cell culture plates were visualized on a Leica DM16000 B inverted microscope.
To assess the sensitivity of iOL towards differentiation promoting drugs, iPSC-derived NPC were transduced with concentrated SON virus particle as described above. Viral medium was removed after 24 h and replaced with GIM lacking T3. The end of the virus infection period was termed day 0. At day 5 of differentiation, cells were detached, singularized and reseeded at densities of 5×10^4 cells in matrigel-coated 48-well plates or 1.5×10^5 cells in 24-well plates containing matrigel-coated glass coverslips. Cells were allowed to recover in minimum DM consisting of DMEM-F12 with 1:200 N2 supplement, 1:100 B27 supplement lacking vitamin A, 1% penicillin/streptomycin/glutamine, 200 μM AA and 100 μM dbcAMP. After 24 h cells were treated with vehicle alone (0.01% (v/v) DMSO) as a negative control, 60 ng/ml T3 as a positive control, or with a drug candidate dissolved in DMSO at three different concentrations (0.5 μM, 1 μM, 5 μM) in minimum DM. The drug candidates comprised miconazole (Sigma), clobetasol (TCI), benztropine (Sigma), indometacin (Sigma), clemastine (Sigma) and oxybutynin (Sigma). Medium was changed every other day and cells were fixed in 4% PFA for immunocytochemical analysis after 21 days of treatment. Investigators were blinded for immunocytochemical analysis.
Identification of drugs inducing remyelination via promotion of oligodendroglial differentiation presents a promising approach for the treatment of demyelinating disorders like MS. Thus, we assessed whether iOL can be utilized to identify compounds promoting oligodendroglial differentiation. We selected six drug candidates (miconazole, clobetasol, benztropine, indometacin, clemastine and oxybutynin) which have been previously described to promote differentiation or myelination of rodent OL^1, 18-20. iOL cultures were treated with either vehicle (0.01% (v/v) DMSO) as a negative control, thyroid hormone (T3) as a positive control, or the drug candidate dissolved in DMSO at three different concentrations (0.5 μM, 1 μM, 5 μM) (FIG. 7a-d).

[2] = test system: MAPT-OL (iOL carrying the N279K MAPT mutation); assay: Stress-induced cell death: rotenone on O4+ iOL, cleaved CASPASE 3 / O4 double-staining; format: cell-based, human; conditions: rotenone 100, 250 and 500 nM, 48 h; all results combined, control cultures set to 100%
Method: To examine the effect of rotenone (Sigma) on the viability of iOL derived from either N279K MAPT or Ctrl cells O4^+ iOL were purified using the MACS technology after 21 days of differentiation and replated at a density of 8×10^3 cells per well into matrigel-coated 96-well plates. After another 6 days in DM, cells were treated with either vehicle (0.01% (v/v) DMSO) or rotenone dissolved in DMSO at three different concentrations (100 nM, 250 nM, 500 nM). […] Investigators were blinded for immunocytochemical analysis.
After 28 days of differentiation, O4^+ iOL harboring the N279K mutation (MAPT-OL) were morphologically indistinguishable from their gene corrected control cell lines (MAPT-GC-OL) (FIG. 7e) and featured similar differentiation efficiencies among all cell lines included (FIG. 7f). We next set out to investigate whether the N279K MAPT mutation induces an altered expression of TAU isoforms in iOL. We purified O4^+ iOL using FACS before RNA sample preparation. […] FTDP-17 patients display widespread neurodegeneration due to increased cellular vulnerability. […]

N[C@@H](Cc1cc(I)c(Oc2ccc(O)c(I)c2)c(I)c1)C(=O)O [T3, Triiodo-L-Thyronine]
O4+ cells ([1]; 60 ng/ml T3 (positive control), minimum DM, 21 days, DMSO control 14.01±2.89%): 28.25±3.47%

CN1[C@@H]2CC[C@H]1C[C@@H](OC(c1ccccc1)c1ccccc1)C2 [benztropine]
toxic influence on iOL ([1]; 21 days): toxic influence
formation of MBP+ mature iOL relative to T3-treated cultures ([1]; minimum DM, 21 days): comparable to T3-treated cultures

CN1CCC[C@@H]1CCO[C@](C)(c1ccccc1)c1ccc(Cl)cc1 [clemastine]
effect on formation of O4+ iOL compared to DMSO control ([1]; minimum DM, 21 days): failed to promote the formation of O4^+ iOL
toxic influence on iOL ([1]; 21 days): toxic influence

C[C@H]1C[C@H]2[C@@H]3CCC4=CC(=O)C=C[C@]4(C)[C@@]3(F)[C@@H](O)C[C@]2(C)[C@@]1(O)C(=O)CCl [clobetasol]
formation of MBP+ mature iOL relative to T3-treated cultures ([1]; minimum DM, 21 days): comparable to T3-treated cultures

Clc1ccc(COC(Cn2ccnc2)c2ccc(Cl)cc2Cl)c(Cl)c1 (stereo not drawn) [miconazole]
increase of MBP+ cells compared to DMSO control cultures ([1]; 1 μM, minimum DM, 21 days): almost tenfold increase
toxic influence on iOL ([1]; 21 days): toxic influence
toxic effect on iOL ([1]; fivefold higher concentration than the effective 1 μM): toxic effect
differentiation-promoting effect on iOL, ranked among the tested compounds ([1]; six drug candidates compared): strongest effect on iOL

CCN(CC)CC#CCOC(=O)C(O)(c1ccccc1)C1CCCCC1 (stereo not drawn) [oxybutynin]
effect on formation of O4+ iOL compared to DMSO control ([1]; minimum DM, 21 days): failed to promote the formation of O4^+ iOL

C=C(C)[C@H]1Cc2c(ccc3c2O[C@@H]2COc4cc(OC)c(OC)cc4[C@@H]2C3=O)O1 [rotenone]
average increase of cell death (cleaved CASPASE-3+ iOL) in MAPT-OL [2]: 48.9±18.7%
